The values below are quoted from earlier work in US8636973B2, “Method of producing pharmacologically pure crystals” (Biosyn Arzneimittel GmbH, priority 2010, dated 2014).

Molecules are shown by their SMILES.

For data set [1] the following is noted: 14° C.
The conditions of data set [2]: Janitzki, solubility studies.

With `O=[Se]=O` [SeO2, selenium dioxide], the solubility in data set [1] was 0.384 kg/l H2O. Consider `O.O.O.O.O.O.O.O.O=[Se]([O-])[O-].[Na+].[Na+]` [Na2SeO3×8 H2O, Na2SeO3×8H2O], for which the “temperature at which the form is stable / exists” value in data set [2] is “up to −8.7 °C”.
